Test results taken from patent US9951065B2 (Gilead Sciences, Inc., priority 2015, dated 2018).

Molecular target: T1, IDO1 (Homo sapiens, UniProt P14902)
T1 construct: HeLa cells were treated with a test compound in the presence of IFNγ, which induces IDO1 expression; host or cells: H1-HeLa cells, IDO1 induced with IFNγ
Experiment: Cell-based (HeLa) assay for measurement of IDO1 inhibition (kynurenine levels in supernatant after IFNγ induction)
Conditions: HeLa cells, geometric mean of a minimum of four determinations
Method in brief: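 HeLa cells, 1,250 per well, treated with compound (0.5% DMSO final) plus IFNγ to induce IDO1, for 48 h. Supernatant kynurenine measured by TCA hydrolysis at 60 °C, then p-dimethylaminobenzaldehyde, absorbance 480 nm. EC50 from a four-parameter fit normalized to −/+IFNγ controls; geometric mean of at least four runs.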

[1] = IFNγ-induced IDO1, kynurenine in supernatant, 48 hour incubation
[2] = IFNγ-induced IDO1, kynurenine in supernatant after 48 hour incubation

T1 sequence (P14902 whole entry): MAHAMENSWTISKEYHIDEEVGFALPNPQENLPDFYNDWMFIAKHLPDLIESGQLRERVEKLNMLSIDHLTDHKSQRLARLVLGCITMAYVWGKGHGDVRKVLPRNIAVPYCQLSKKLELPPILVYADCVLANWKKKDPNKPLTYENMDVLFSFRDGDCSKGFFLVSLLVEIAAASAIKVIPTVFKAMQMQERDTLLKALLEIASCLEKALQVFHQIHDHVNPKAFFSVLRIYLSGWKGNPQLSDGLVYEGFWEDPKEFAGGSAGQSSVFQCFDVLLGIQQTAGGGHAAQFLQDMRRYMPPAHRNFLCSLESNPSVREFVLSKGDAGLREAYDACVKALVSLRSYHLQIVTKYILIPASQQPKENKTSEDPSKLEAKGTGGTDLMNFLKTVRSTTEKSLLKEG

SMILES | EC50 [1] | EC50 [2]
COCCN1CCCC(Nc2nc3c(F)c(F)cc(/C(=N/O)Nc4ccc(F)c(Cl)c4)c3[nH]2)C1 (centres unmarked) [Example 453, N-(3-chloro-4-fluorophenyl)-4,5-difluoro-N′-hydroxy-2-((1-(2-methoxyethyl)piperidin-3-yl)amino)-1H-benzo[d]imidazole-7-carboximidamide] | 651 nM | –
O/N=C(\Nc1ccc2ccccc2c1)c1ccnc2nc[nH]c12 [Example 102, N′-hydroxy-N-(naphthalen-2-yl)-1H-imidazo[4,5-b]pyridine-7-carboximidamide] | – | 1930 nM
CN(C)CCNc1nc2cc(F)cc(/C(=N/O)Nc3ccc(F)c(Cl)c3)c2[nH]1 [Example 379, N-(3-chloro-4-fluorophenyl)-2-((2-(dimethylamino)ethyl)amino)-5-fluoro-N′-hydroxy-1H-benzo[d]imidazole-7-carboximidamide] | 435 nM | –
CC(=O)NCCNc1nc2nccc(/C(=N/O)Nc3ccc(F)c(Cl)c3)c2[nH]1 [Example 404, N-(2-((7-(N-(3-chloro-4-fluorophenyl)-N′-hydroxycarbamimidoyl)-1H-imidazo[4,5-b]pyridin-2-yl)amino)ethyl)acetamide] | > 10000 nM | –
Cc1nc2nccc(/C(=N/O)Nc3ccc(F)c(Cl)c3)c2[nH]1 [Example 107, N-(3-Chloro-4-fluorophenyl)-N′-hydroxy-2-methyl-1H-imidazo[4,5-b]pyridine-7-carboximidamide] | – | 1920 nM
CC1CN(C(C)(C)CNc2nc3nccc(/C(=N/O)Nc4ccc(F)c(Cl)c4)c3[nH]2)CC(C)O1 (centres unmarked) [Example 484, N-(3-chloro-4-fluorophenyl)-2-((2-(2,6-dimethylmorpholino)-2-methylpropyl)amino)-N′-hydroxy-1H-imidazo[4,5-b]pyridine-7-carboximidamide] | 566 nM | –
CC1CCN(C)C(CNc2nc3c(F)c(F)cc(/C(=N/O)Nc4ccc(F)c(Cl)c4)c3[nH]2)C1 (centres unmarked) [Example 466, N-(3-chloro-4-fluorophenyl)-2-(((1,4-dimethylpiperidin-2-yl)methyl)amino)-4,5-difluoro-N′-hydroxy-1H-benzo[d]imidazole-7-carboximidamide] | 685 nM | –
NC(=O)CNc1nc2c(F)c(F)cc(/C(=N/O)Nc3ccc(F)c(Cl)c3)c2[nH]1 [Example 294, 2-((7-(N-(3-chloro-4-fluorophenyl)-N′-hydroxycarbamimidoyl)-4,5-difluoro-1H-benzo[d]imidazol-2-yl)amino)acetamide] | – | 9950 nM
Cn1ccnc1CCNc1nc2c(F)c(F)cc(/C(=N/O)Nc3ccc(F)c(Cl)c3)c2[nH]1 [Example 344] | 3060 nM | –
COC(=O)NCCNc1nc2c(F)c(F)cc(/C(=N/O)Nc3ccc(F)c(Cl)c3)c2[nH]1 [Example 337, Methyl (2-((7-(N-(3-chloro-4-fluorophenyl)-N′-hydroxycarbamimidoyl)-4,5-difluoro-1H-benzo[d]imidazol-2-yl)amino)ethyl)carbamate] | 4410 nM | –
NC1=NCCN1CCc1nc2nccc(/C(=N/O)Nc3ccc(F)c(Cl)c3)c2[nH]1 [Example 209, 2-(2-(2-amino-4,5-dihydro-1H-imidazol-1-yl)ethyl)-N-(3-chloro-4-fluorophenyl)-N′-hydroxy-1H-imidazo[4,5-b]pyridine-7-carboximidamide] | – | 5000 nM
CS(=O)(=O)CCNc1nc2c(F)ccc(/C(=N/O)Nc3ccc(F)c(Cl)c3)c2[nH]1 [Example 33, N-(3-Chloro-4-fluorophenyl)-4-fluoro-N′-hydroxy-2-((2-(methylsulfonyl)ethyl)amino)-1H-benzo[d]imidazole-7-carboximidamide] | – | 1830 nM
O/N=C(\Nc1ccc(F)c(Cl)c1)c1c(F)ccc2nc[nH]c12 [Example 3, N-(3-Chloro-4-fluorophenyl)-6-fluoro-N′-hydroxy-1H-benzo[d]imidazole-7-carboximidamide] | – | 4800 nM
O/N=C(\Nc1ccc2ccoc2c1)c1ccnc2nc[nH]c12 [Example 68, N-(Benzofuran-6-yl)-N′-hydroxy-1H-imidazo[4,5-b]pyridine-7-carboximidamide] | – | 890 nM
ON=C(Nc1ccc(F)c(Cl)c1)c1cc(F)c(F)c2nc(NCc3ncc[nH]3)[nH]c12 [Example 345, 2-(((1H-imidazol-2-yl)methyl)amino)-N-(3-chloro-4-fluorophenyl)-4,5-difluoro-N′-hydroxy-1H-benzo[d]imidazole-7-carboximidamide] | 3840 nM | –
O/N=C(\Nc1ccc(F)c(Cl)c1)c1cc(F)cc2nc[nH]c12 [Example 4, N-(3-Chloro-4-fluorophenyl)-5-fluoro-N′-hydroxy-1H-benzo[d]imidazole-7-carboximidamide] | – | 527 nM
Nc1nc2c(F)ccc(/C(=N/O)Nc3cccc(Br)c3)c2[nH]1 [Example 18, 2-Amino-N-(3-bromophenyl)-4-fluoro-N′-hydroxy-1H-benzo[d]imidazole-7-carboximidamide] | – | 312 nM
O/N=C(\Nc1cccc(C(F)F)c1)c1ccnc2nc[nH]c12 [Example 98, N-(3-(difluoromethyl)phenyl)-N′-hydroxy-1H-imidazo[4,5-b]pyridine-7-carboximidamide] | – | 550 nM
O/N=C(\Nc1ccc(F)c(Cl)c1)c1ccnc2nc(CCN3CCC(Cc4ccccc4)CC3)[nH]c12 [Example 275, 2-(2-(4-benzylpiperidin-1-yl)ethyl)-N-(3-chloro-4-fluorophenyl),N′-hydroxy-1H-imidazo[4,5-b]pyridine-7-carboximidamide] | – | 675 nM
O/N=C(\Nc1ccc(F)c(Cl)c1)c1ccnc2nc(CNCC(F)(F)F)[nH]c12 [Example 118, N-(3-Chloro-4-fluorophenyl)-N′-hydroxy-2-(((2,2,2-trifluoroethyl)amino)methyl)-1H-imidazo[4,5-b]pyridine-7-carboximidamide] | – | 4640 nM
CN(CCc1nc2nccc(/C(=N/O)Nc3ccc(F)c(Cl)c3)c2[nH]1)CC(F)F [Example 187, N-(3-Chloro-4-fluorophenyl)-2-(2-((2,2-difluoroethyl)(methyl)amino)ethyl)-N′-hydroxy-1H-imidazo[4,5-b]pyridine-7-carboximidamide] | – | 3400 nM
O/N=C(\Nc1ccc(F)c(Cl)c1)c1ccnc2nc(CCN3CC4CCCC(C4)C3)[nH]c12 [Example 276, 2-(2-(3-azabicyclo[3.3.1]nonan-3-yl)ethyl)-N-(3-chloro-4-fluorophenyl)-N′-hydroxy-1H-imidazo[4,5-b]pyridine-7-carboximidamide] | – | 618 nM
O/N=C(\Nc1ccc(F)c(Cl)c1)c1ccnc2nc(NCCC3CCCCC3)[nH]c12 [Example 223, N-(3-chloro-4-fluorophenyl)-2-((2-cyclohexylethyl)amino)-N′-hydroxy-1H-imidazo[4,5-b]pyridine-7-carboximidamide] | – | 2180 nM
